{
  "source": "patent US5811462A",
  "about": "“HIV Protease inhibitors useful for the treatment of AIDS” (Merck & Co., Inc., priority 1997, dated 1998)",
  "data": [
    {"molecular_target": "T1, HIV Protease (Human immunodeficiency virus type 1 group M subtype B, UniProt P04585)", "T1 construct": "the protease expressed in Eschericia coli; made in house; host or cells: Escherichia coli", "assay": "Inhibition of microbial expressed HIV protease (peptide substrate cleavage, HPLC of products)", "format": "biochemical", "conditions": "protease expressed in Eschericia coli, pH 5.5, 30° C., 1 hour", "description": "Assay for Inhibition of Microbial Expressed HIV Protease\nInhibition studies of the reaction of the protease expressed in Eschericia coli with a peptide substrate [Val-Ser-Gln-Asn-(betanapthyl)Ala-Pro-Ile-Val, 0.5 mg/mL at the time the reaction is initiated] were in 50 mM Na acetate, pH 5.5, at 30° C. for 1 hour. Various concentrations of inhibitor in 1.0 μl DMSO were added to 25 μl of the peptide solution in water. The reaction is initiated by the addition of 15 μl of 0.33 nM protease (0.11 ng) in a solution of 0.133M Na acetate pH 5.5 and 0.1% bovine serum albumin. The reaction was quenched with 160 μl of 5% phosphoric acid. Products of the reaction were separated by HPLC (VYDAC wide pore 5 cm C-18 reverse phase, acetonitrile gradient, 0.1% phosphoric acid). The extent of inhibition of the reaction was determined from the peak heights of the products.", "units": {"IC50": "nM"}, "values": [
      {"smiles": "O=C(N[C@H]1c2ccccc2C[C@H]1O)[C@H](Cc1ccccc1)C[C@H](O)CNC(=O)[C@H]1[C@H](C(=O)N(Cc2ccccc2)Cc2ccccc2)[C@@H]2C=C[C@H]1C2", "note": "[C]", "IC50": 0.025},
      {"smiles": "CC(C)(C)NC(=O)[C@H]1[C@H](C(=O)NC[C@@H](O)C[C@@H](Cc2ccccc2)C(=O)N[C@H]2c3ccccc3C[C@H]2O)[C@H]2C=C[C@@H]1C2", "note": "[B]", "IC50": 82.8},
      {"smiles": "O=C(N[C@H]1c2ccccc2C[C@H]1O)[C@H](Cc1ccccc1)C[C@H](O)CNC(=O)[C@H]1[C@H](C(=O)NCCc2ccccc2)[C@@H]2C=C[C@H]1C2", "note": "[A]", "IC50": 0.055}
    ]}
  ]
}
